{"source": "a melting point compilation (Tetko et al.; mined from patent text by program, amines drawn as free bases though some values may be those of a salt)", "data": [{"units": {"melting point": "°C"}, "values": [{"compound": "CN(C)CC1CC(c2ccc(S(C)(=O)=O)cc2)=C(c2cc(F)cc(F)c2)C1=O", "note": "(configuration not stated)", "melting point": "104 to 106"}, {"compound": "COC(=O)C(Cl)Cc1ccc(-n2c(=O)cc(C(F)(F)F)n(C)c2=O)c(F)c1", "note": "(configuration not stated)", "melting point": "101 to 103"}, {"compound": "CC(Br)C(=O)c1ccccc1NCC(=O)O", "note": "(configuration not stated)", "melting point": "144 to 147"}, {"compound": "COc1ccc(C(=O)Nc2nc(C)c(C(=O)NCc3ccccc3)s2)cc1", "melting point": "203 to 204"}, {"compound": "CC(=O)c1ccc(C2=CCCCC2)cc1", "melting point": "76 to 77"}, {"compound": "CCCCC(=O)c1c(-c2ccc3c(Br)c(OCC(=O)OCC)ccc3c2)oc2ccc(Cl)cc12", "melting point": "88 to 91"}, {"compound": "CCc1noc(-c2ncn(-c3cccc(O)c3)c2COC)n1", "melting point": "98 to 99"}, {"compound": "CCOC(=O)c1ccc(I)nc1", "melting point": "48 to 49"}, {"compound": "CCCCNC(=O)Oc1ccc(C(O)(CC)c2cccc(C(F)(F)F)c2)cc1", "note": "(configuration not stated)", "melting point": "99 to 100"}, {"compound": "COc1c(-c2cccs2)ccc2c(OC)c(-c3cccs3)ccc12", "melting point": "225 to 228"}, {"compound": "CCCCOc1ccc(Cc2cc3c(cn2)COC3)cc1", "melting point": "213 to 215"}, {"compound": "CCOC(=O)c1ccc(CCc2cnc3[nH]c(N)nc(N)c2-3)cc1", "melting point": "202 to 204"}, {"compound": "Cn1c2c(c3cc(O)ccc31)CC(CO)C2", "note": "(configuration not stated)", "melting point": "153 to 154"}, {"compound": "CCn1nc(-c2ccccc2)c(C(=O)OCC(=O)OCc2ccccc2)c(Nc2cnccc2C)c1=O", "melting point": "115 to 116"}, {"compound": "CC(C)(C)OC(=O)N1CC(COS(C)(=O)=O)c2c1cc(OCc1ccccc1)c1ncccc21", "note": "(configuration not stated)", "melting point": "156 to 157"}, {"compound": "CCCCCCCCCCCCCCOC(=O)CNC(=O)OCc1ccccc1", "melting point": "57 to 58"}, {"compound": "CNC(=O)N1CCc2cc(S(=O)(=O)N(C)OC)ccc21", "melting point": 152}, {"compound": "Nc1ncnc2c1c(-c1ccc(Oc3ccccc3)cc1)cn2C1CCCC1", "melting point": "178 to 179"}, {"compound": "O=C(c1ccccc1)c1ccccc1C#CCN1C(=O)c2ccccc2C1=O", "melting point": "164 to 165"}, {"compound": "OC(c1ccc(Br)cc1)c1ccc(Br)cc1", "melting point": "112 to 113"}, {"compound": "C[Si](C)(C)c1ccc2c(c1)cc(C(=O)Nc1ccc(N3CC(O)C3)nc1)n2Cc1cccc(F)c1", "melting point": "207 to 208"}, {"compound": "c1cnc(N2CCN(Cc3ccc4ccccc4c3)CC2)nc1", "melting point": "109 to 110"}, {"compound": "Cc1cc([N+](=O)[O-])c2c(c1SC(=O)N(C)C)CCC2", "melting point": 180}, {"compound": "CCN(CC)c1ccc(C2(c3ccc(N(C)C)cc3)OC(=O)c3cc(N(C)C)ccc32)c(C)c1", "note": "(configuration not stated)", "melting point": "190 to 195"}, {"compound": "COC(=O)c1cc(C(=O)OC)c(O)c([N+](=O)[O-])c1", "melting point": "74 to 76"}, {"compound": "CCCCCCCC(=N)NC(=O)Nc1ccc(Cl)cc1", "melting point": "156 to 165"}, {"compound": "CN1Cc2c(-c3nc(CCl)cs3)ncn2-c2ccc(F)cc2C1=O", "melting point": "239 to 241"}, {"compound": "CCNC(=O)N1CCc2cc(S(=O)(=O)n3cc(-c4ccccc4)[nH]c3=O)ccc21", "melting point": "234 to 235"}, {"compound": "O=[N+]([O-])c1ccc2nc(-c3ccccc3)sc2c1", "melting point": "179 to 181"}, {"compound": "COCCNC(=O)c1cccc(-c2cccc3cc(Cc4cccc(C#N)c4)sc23)c1", "melting point": "86 to 92"}, {"compound": "COc1cc(C(=O)O)cc(OC)c1Cc1cnc(N)nc1N", "melting point": "264 to 267"}, {"compound": "COc1cc(O)cc2c1-c1c(O)cccc1C2=O", "melting point": "71 to 72"}, {"compound": "CSc1ccc2c(=O)c(OS(C)(=O)=O)cn(C)c2c1", "melting point": 182}, {"compound": "CC(C)(C)CNc1cc(NCC(C)(C)C)nc(N2CCNCC2)n1", "melting point": "132 to 136"}, {"compound": "CCCC1NS(=O)(=O)N(COC(=O)c2c(Cl)cccc2Cl)C1=O", "note": "(configuration not stated)", "melting point": "95 to 97"}, {"compound": "Cc1cc(C)nc(N=S(C)C)n1", "melting point": "117 to 120"}, {"compound": "CC1C=CC(C(=O)O)n2c(=O)n(CCC(=O)O)c(=O)n21", "note": "(configuration not stated)", "melting point": "184 to 186"}, {"compound": "FC(F)(F)c1nc2ccc(Cn3ccnc3)cc2n1CC1CCCCC1", "melting point": 165}, {"compound": "c1cnc(C2CC(c3cnccn3)CC(c3cnccn3)C2)cn1", "note": "(configuration not stated)", "melting point": "122 to 124"}, {"compound": "CCN1CCC(O)(c2cc(F)cc(F)c2)C1", "note": "(single isomer, unassigned; (-))", "melting point": "111 to 112"}, {"compound": "CC(C)(C)[C@@H](CO)NC(=O)[C@@H](CC(=O)O)n1ccc(-c2ccc(-c3ccc(C#N)cc3)cc2)c1", "melting point": "110 to 112"}, {"compound": "COc1ccc(C2(C#N)CC=C(C(=O)O)CC2)cc1OC1CCCC1", "note": "(configuration not stated)", "melting point": "161 to 163"}, {"compound": "CC(=O)C(=C1SCCCN1Br)[N+](=O)[O-]", "melting point": "101 to 104"}, {"compound": "COC1=CC[C@H]2[C@@H]3CCc4cc(OC)ccc4[C@H]3CC[C@]12C", "melting point": "90.5 to 93"}, {"compound": "CC#CCOc1ccc(S(=O)C(C(=O)NO)c2ccccc2)cc1", "note": "(configuration not stated)", "melting point": 55}, {"compound": "O=c1[nH]c2ccc(Cl)cc2n2cc(-c3ccccc3)cc12", "melting point": 346}, {"compound": "CC(=O)C(=Cc1cccc([N+](=O)[O-])c1)C(=O)OC(C)CCl", "note": "(configuration not stated)", "melting point": "95 to 96"}, {"compound": "COc1cc2[nH]c3cc(OC)c(OC)cc3c2cc1OC", "melting point": "232 to 233"}, {"compound": "CCCCS(=O)Cc1cc(C)c(CCl)cc1C", "note": "(configuration not stated)", "melting point": 112}, {"compound": "CCCCOc1ccc(Nc2c([N+](=O)[O-])ccc(Cl)c2C(=O)O)cc1", "melting point": "166 to 169"}, {"compound": "CNC(C)=C(C(=O)OC)C(=O)c1ccccc1", "melting point": "75 to 77"}, {"compound": "O=C(O)c1cc(=O)c2c(o1)-c1ccccc1SC2", "melting point": "251 to 253"}, {"compound": "NN=Cc1ccc(CC(=O)NC2CCC3(CC2)CN(CC(=O)O)C(=O)O3)cc1", "note": "(configuration not stated)", "melting point": "193 to 196"}, {"compound": "N#Cc1ncccc1COc1cccc(F)c1", "melting point": "52 to 53"}, {"compound": "CCOC(=O)CSc1nc(-c2ccccc2)c(-c2ccccc2)o1", "melting point": "53 to 55"}, {"compound": "FC(F)(F)Oc1ccc(C=Cc2nc(CNc3ccc(CCCCn4ccnn4)cc3)co2)cc1", "melting point": "103 to 105"}, {"compound": "COc1cccc(NC(=O)N(C)Cc2cccc3c2C(=O)N(C2CCC(=O)NC2=O)C3=O)c1", "note": "(configuration not stated)", "melting point": "160 to 162"}, {"compound": "COC(=O)c1ccc(-c2nc(-c3ccc(C(F)(F)F)cc3)no2)c(NC(=O)C(F)(F)F)c1", "melting point": "188 to 189"}, {"compound": "COc1c(C(=O)O)cccc1[N+](=O)[O-]", "melting point": "224 to 226"}, {"compound": "CCCNC(=O)Nc1ccccc1", "melting point": "106 to 107"}, {"compound": "C=CC(=O)NCc1ccc(CBr)cc1", "melting point": 167}, {"compound": "Cc1nc2ccc3c(c2o1)OC(CN1CCC(n2c(=O)[nH]c4ccccc42)CC1)CO3", "note": "(configuration not stated)", "melting point": "218 to 220"}, {"compound": "Cc1c(S(=O)(=O)c2ccc(Cl)cc2)cc(C(C)C)c(O)c1C(=O)O", "melting point": "165 to 166"}, {"compound": "c1ccc(-c2nn3ccccc3c2-c2ccnnc2)cc1", "melting point": "204 to 205"}, {"compound": "COC=C1C(=O)NC(=O)c2ccc(OC)cc21", "melting point": "245 to 247"}, {"compound": "Nc1cccc(OCc2ccccc2)c1N", "melting point": 68}, {"compound": "C=C(C)C(=O)NC1=CC(O)(C(C)=O)C(C(=O)O)C=C1", "note": "(configuration not stated)", "melting point": 178}, {"compound": "CC(=O)CC(=O)NC12CC3CC(CC(C3)C1)C2", "melting point": 80}, {"compound": "CCC(=O)C1=C(O)CC(c2ccc3c(c2)OCCO3)CC1=O", "note": "(configuration not stated)", "melting point": 155}, {"compound": "CN(C)CCNC(=S)SC(C)(C)[C@H](NC(=O)c1ccc(Cl)cc1)C(=O)O", "melting point": "142 to 143"}, {"compound": "CC(C)(C)OC(=O)Nc1ccc(Nc2nc(-c3ccc4cc(OCc5ccccc5)ccc4c3)cc3ccnn23)cc1", "melting point": 189}, {"compound": "CC1(C)CCc2c(N3CCCC3)nc3sc4c(NCc5ccco5)ncnc4c3c2C1", "melting point": "201 to 202"}, {"compound": "CSc1nn2c(N3CCN(Cc4ccccc4)CC3)cc(C)nc2c1S(=O)(=O)c1ccccc1", "melting point": "156 to 158"}, {"compound": "COc1ccc(-c2coc3cc(OCC4CO4)ccc3c2=O)cc1OC", "note": "(configuration not stated)", "melting point": "161 to 162"}, {"compound": "O=C(O)c1nc(-c2cc(Oc3ccc(Cl)cc3Cl)c(O)cc2Cl)no1", "melting point": 115}, {"compound": "CNC(=O)C1CN(CC(=O)Nc2c(Cl)cc(C(C)=O)cc2Cl)CCN1CCCCN(c1ccc(F)cc1)c1ccc(F)cc1", "note": "(configuration not stated)", "melting point": 85}, {"compound": "CSc1ccc(-c2nn(Cc3cccnc3)c(=O)cc2-c2ccc(F)cc2)cc1", "melting point": "160 to 161"}, {"compound": "COc1ccc(N2C(=O)C(N3C(=O)c4ccccc4C3=O)C2c2ccc(C(=O)O)cc2)cc1", "note": "(configuration not stated)", "melting point": 265}, {"compound": "O=S(=O)(c1ccc(Cl)cc1)C(CCCCCCO)c1cc(F)ccc1F", "note": "(configuration not stated)", "melting point": "77 to 79"}, {"compound": "CC(C)(C)OC(=O)NC[C@H](O)[C@@H](O)[C@H](O)[C@H](O)CO", "melting point": "81 to 83"}, {"compound": "O=c1n(CCCF)nnn1-c1ccc(Cl)cc1F", "melting point": "62 to 63"}, {"compound": "COc1cc(Nc2nccc(-c3ccc(N4CCNCC4)nc3)n2)cc(OC)c1OC", "melting point": 103}, {"compound": "O=C(c1ccc[nH]1)C1CCCCC1", "melting point": "83 to 84"}, {"compound": "Cc1cc(-c2ccc(Cl)cc2)nc2c(C#Cc3ccc(C(C)(C)O)cc3)cnn12", "melting point": "112 to 115"}, {"compound": "Cc1cc(O)ccc1Nc1ccccc1C(=O)O", "melting point": "209 to 211"}, {"compound": "ClC(=NNc1ccccc1)c1cccc(Cl)c1", "melting point": "80 to 81.5"}, {"compound": "CCC1(CC)c2cc(Br)ccc2-c2ccc(Br)cc21", "melting point": "144 to 153"}, {"compound": "O=C1CCC(c2ccc(-n3cnc4ccccc43)cc2)=NN1", "melting point": "262 to 264"}, {"compound": "CC(C)(OCc1cc2nc(Cl)ccc2n1S(=O)(=O)c1ccc2c(c1)CCO2)C(=O)O", "melting point": 169}, {"compound": "CC(Cc1cc(F)cc2cc(Cl)oc12)NC(=O)OC(C)(C)C", "note": "(configuration not stated)", "melting point": "133 to 135"}, {"compound": "CNS(=O)(=O)c1ccccc1Nc1nc(Nc2ccc3c(c2)COCCN3C)ncc1Cl", "melting point": "163 to 164"}, {"compound": "COc1ccc(-c2cc3ccc(C#N)cc3o2)cc1", "melting point": "141 to 142"}, {"compound": "COC(=O)CCC#Cc1cc(Cl)ccc1NS(=O)(=O)c1ccc2nc(NC(C)=O)sc2c1", "melting point": 85}, {"compound": "COc1ccc([N+](=O)[O-])c2c1CC(NC(C)=O)CC2", "note": "(configuration not stated)", "melting point": "205 to 206"}, {"compound": "CCCCCCN(Cc1ccc(F)cc1)c1ccc(C(=O)OCC)cc1", "melting point": "41 to 42"}, {"compound": "Cc1cc(Cl)nnc1-c1ccc(C#N)cc1", "melting point": "218 to 220"}, {"compound": "N#Cc1cc(C(=O)Nc2ccc(Cl)cn2)nc(C(F)(F)F)c1", "melting point": 208}, {"compound": "COc1cc(N)c(Cl)cc1C(=O)NCC1CCN(CCCCCC(=O)c2ccc(C)c(C)c2)CC1", "melting point": "115 to 117"}, {"compound": "C=CCc1c(OC(C)=O)cc(C)c2c(C)cc(=O)oc12", "melting point": 166}, {"compound": "CC(C)=NOCc1nc2c(N)nc3ccccc3c2n1CCCNS(C)(=O)=O", "melting point": "178 to 179"}, {"compound": "CC(=O)Nc1cc(Br)ccc1C(=O)O", "melting point": 220}, {"compound": "CCC1c2cccn2-c2ccc(F)cc2N1C(=O)c1ccc(OC)cc1", "note": "(configuration not stated)", "melting point": "39 to 42"}]}]}
